Patent US11345675B2, “Compound, anti-allergy drug, and mediator release inhibitor” (LAIMU CORPORATION, priority 2018, dated 2022)
“Also recorded” adds a separate entry of the source.

Legend:
[1] = test system: rat basophilic leukemia cells RBL-2H3; experiment: Degranulation inhibiting test (β-hexosaminidase release induced by antigen-antibody reaction); type: cell-based; settings: RBL-2H3 cells, anti-DNP-IgE/DNP-HSA stimulation; compounds 1, 2 and 6-sPalm-AA-2G at 40, 60 or 80 μM, oxatomide 75 μM; FIG. 1
Method: In this Example, the compound 1 and the compound 2 were evaluated in terms of the effect thereof to inhibit degranulation to be induced by stimulation of an antigen-antibody reaction. Degranulation was quantified based on, as an index, β-hexosaminidase release from rat basophilic leukemia cells RBL-2H3. Specifically, β-hexosaminidase is an enzyme released through degranulation of mast cells or basocytes, and through enzymatic reaction with a substrate, p-nitrophenyl-2-acetamide-2-deoxy-β-glucopyranoside, this increases the absorbance at 405 nm of the reaction liquid. Here, the degranulation inhibiting effect was evaluated from the absorbance change as an index of β-hexosaminidase release amount (degree of degranulation).
The compound 1 and the compound 2 were individually dissolved in a 0.25% dimethyl sulfoxide-containing MT buffer at a concentration of 40 μM, 60 μM or 80 μM to prepare solutions to be evaluation samples. On the other hand, as comparative samples, 6-sPalm-AA-2G was dissolved in a 0.25% dimethyl sulfoxide-containing MT buffer at a concentration of 40 μM, 60 μM or 80 μM to prepare solutions, and oxatomide was dissolved in a 0.25% dimethyl sulfoxide-containing MT buffer at a concentration of 75 μM to prepare a solution. […]

[2] = test system: PCA (passive cutaneous anaphylaxis) reaction; experiment: PCA reaction inhibition test (Evans blue dye leakage in auricle); type: in vivo; settings: applied to auricle of ICR male mice, 90 nmol/auricle (6-sPalm-AA-2G 150 nmol/auricle), 3.5 hours before DNP-HSA-Evans blue i.v.; FIG. 2
Method: In this Example, the anti-allergy activity of the compound 1 and the compound 2 was evaluated based on, as an index, the inhibiting effect thereof against PCA (passive cutaneous anaphylaxis) reaction. PCA reaction is a series of cell reaction of an allergy reaction including immobilization of mast cells via an Fc part of immunoglobulin, antigen-antibody reaction on the cells, release of inflammatory mediator from the mast cells through the reaction and promotion of vascular permeability. Here, after an anti-DNP-IgE antibody solution has been subcutaneously administered to a test body, a solution containing a 2,4-dinitrophenyl group (DNP)-labeled human serum albumin (HSA) and a dye (Evans blue) (DNP-HSA-Evans blue solution) is intravenously administered, and the vascular permeability increase according to the antigen-antibody reaction is quantified by the absorbance increase owing to dye leakage from the blood vessel to the tissue to thereby evaluate the PCA reaction inhibiting effect. […]
An aqueous 1 N potassium hydroxide solution (0.5 mL) was added to the thus-cut auricle, and shaken at 37° C. overnight. After shaking, a mixed solution (3.25 mL) of aqueous 0.34 M phosphoric acid solution/acetone=13/5 (v/v) was added, and centrifuged by 700×g at 4° C. for 20 minutes, and the absorbance at 620 nm of the supernatant was measured. […]

| Structure (SMILES) | β-hexosaminidase release inhibition ratio (degranulation inhibition ratio) [1] | dye leakage (relative absorbance at 620 nm, control = 100) [2] |
| --- | --- | --- |
| CCCCCCCCCCCCCCCC(=O)OC[C@H](O)[C@H]1OC(=O)C(OC)=C1O [compound 1] | greatly higher than the degranulation inhibition ratio of the system added with 6-sPalm-AA-2G, and surpasses the degranulation inhibition ratio of the system added with oxatomide | lower than the dye leakage in the system with 6-sPalm-AA-2G |
| CCCCCCCCCCCCCCCC(=O)NC[C@H](O)[C@H]1OC(=O)C(OC)=C1O [compound 2] | greatly higher than the degranulation inhibition ratio of the system added with 6-sPalm-AA-2G, and surpasses the degranulation inhibition ratio of the system added with oxatomide; also recorded: tends to have a higher degranulation inhibiting effect than the compound 1 | lower than the dye leakage in the system with 6-sPalm-AA-2G; also recorded: suppressed more than that in the system where oxatomide had been applied; also recorded: tends to have a higher anti-allergy activity than the compound 1 |
